Experimental data taken from patent US20220257722A1, “COMPOSITIONS AND METHODS OF TREATING AND PREVENTING SYSTEMIC COMPLICATIONS OF ACUTE ILLNESS” (United States Government As Represented By The Department …, priority 2019, published 2022).

Key:
rat small intestine = experiment: In vivo small intestinal perfusion: FITC-LPS transport into portal vein and mesenteric lymph during OA/TCA exposure; settings: for TDG-related augmentation of FITC-LPS transport into the lymph: L-NAME 0.1 mM perfused or PG97-269 0.3 mg/kg iv before TDG; for inhibitory effect of TDG on FITC-LPS transport into the PV: L-NAME 0.1 mM perfused or PG97-269 0.3 mg/kg iv before TDG 50 μg/kg iv; for AUC0-90 of lymph FITC-LPS compared with the +TDG group / TDG-induced reduction of AUC0-90 PV FITC-LPS / lymph output in TDG-treated rats: L-NAME or PG97-269 before TDG; for AUC0-90 of PV FITC-LPS / AUC0-90 of lymph FITC-LPS: OA/TCA-augmented, 0-90 min; for OA/TCA-induced FITC-LPS transport into the PV: intraduodenal FITC-LPS 50 μg/ml + OA 30 mM/TCA 10 mM, anesthetized rats; for FITC-LPS transport into the lymph: intraduodenal FITC-LPS + OA/TCA
Experimental: In vivo small intestinal perfusion. Intraduodenal perfusions combined with PV and mesenteric lymph cannulation were carried out (1, 48). Under isoflurane anesthesia (2%), the animal was placed supine on a recirculating heating block system (Summit Medical Systems, Bend, Oreg., USA) in order to maintain body temperature at 36-37° C. Prewarmed saline was infused via the right femoral vein at 1.08 ml/h using a Harvard infusion pump (Harvard Apparatus, Holliston, Mass., USA). The abdomen was incised, and the PV was cannulated with a polyethylene (PE)-50 tube attached with 23G needle and fixed by methylacrylate adhesive at the insertion site. The tube was filled with heparinized saline enabling repeated blood sampling. PV samples (0.2 ml each) were collected every 15 min, followed by 0.2 ml flushes with heparinized saline. […] The lymph solution was continuously collected into a 1.5-ml tube every 15 min. A polyethylene tube (diameter 5 mm) filled with PBS was inserted through the forestomach and tied at 0.5 cm caudal from the pyloric ring. After bolus perfusion of 2 ml PBS into the duodenum from the tube, followed by stabilization for ˜30 min, the time was set as t=0 min. FITC-LPS (50 μg/ml) in 2-ml PBS with or without OA (30 mM) and TCA (10 mM) was bolus perfused at t=0 min. In order to maintain lymph flow, 2-ml PBS was perfused every 30 min. PV and lymph samples were collected every 15 min for 90 min. Blood samples were collected in a 0.5-ml tube containing 1 μl each of EDTA (0.5 M), and immediately centrifuged at 5,000 × g for 5 min, after which the plasma was stored at −80° C. until use. The lymph solution was weighed to measure its volume and centrifuged, with the supernatant stored at −80° C. until use. At 90 min, after collection of PV and lymph samples, arterial blood was taken from abdominal aorta for a reference sample, followed by euthanasia by thoracotomy.
The appearance of FITC-LPS into the PV plasma and lymph was assessed by fluorescence measurement using Synergy-2. Fluorescence intensity in the t=0 sample as background was subtracted from the fluorescence values measured in other time point samples. For lymph samples, the FITC-LPS concentration was multiplied by the lymph output in order to calculate total FITC-LPS appearance. FITC-LPS appearance was expressed as PV FITC-LPS content (ng/ml) or FITC-LPS transport into lymph (ng/15 min). Furthermore, total FITC-LPS transport into the PV and lymph was assessed by calculating the area under the curve (AUC) during 0-90 min of FITC-LPS appearance (AUC0-90) using the trapezoidal rule and expressed as AUC0-90 of PV FITC-LPS (μg·min/ml) and AUC0-90 of lymph FITC-LPS (μg).
Intestinal perfusion study: drug treatment. The lipid raft inhibitor MβCD (1 mM), the CD36 inhibitor SSO (1 mM), and PL81 (3%) were added to the initial perfusion of 2-ml PBS at t=−30 min, followed by their addition to the luminal FITC-LPS/OA/TCA solution at t=0 min.
Effect of TDG on intestinal LPS transport. The stable, DPP4-resistant analog of GLP-2, TDG (13) was used to examine the acute effect of GLP-2 on LPS transport into PV and mesenteric lymph in vivo. TDG (50 μg/kg) was bolus injected iv 15 min before the luminal FITC-LPS/OA/TCA perfusion (at t=−15 min). L-NAME was added to the first perfusion of 2 ml PBS (at t=−30 min). PG97-269 (0.3 mg/kg) was bolus injected iv 20 min before the luminal FITC-LPS/OA/TCA perfusion (at t=−20 min).

rat jejunal mucosa = experiment: FITC-LPS mucosal-to-serosal transport in Ussing-chambered rat jejunal mucosa (FITC fluorescence); format: cell-based; settings: mucosal FITC-LPS 10 μg/ml; SSO 0.1 mM or MβCD 1 mM
Experimental: Short-circuit current measurements in Ussing chambered preparations. Mucosa-submucosa preparations were prepared from the mid-jejunum (˜20 cm from the pyloric ring) by muscle stripping using fine forceps under a stereomicroscope. Two or four preparations were prepared from one animal. The tissue was then mounted between two hemi-sliders with an aperture=0.3 cm^2 (Physiologic Instruments, San Diego, Calif., USA). Chambers were bathed with serosal and luminal bathing solutions in a volume of 4 ml each, maintained at 37° C. using a water recirculating heating system. […] Short-circuit current (Isc) was continuously measured with tissue conductance (Gt) and TEER (Ω·cm^2) determined every 20 sec in order to assess the tissue integrity during the LPS and lipid exposure. The current was recorded by the DataQ system (Physiologic Instruments). […]
LPS movement from mucosal to serosal solution. LPS movement m-to-s was assessed using a LAL test kit (Pierce Chromogenic Endotoxin Quant Kit, Pierce Biotechnology, Rockford, Ill., USA), which eliminates non-specific detection of (1,3)-β-D-glucan, then reduces false-positive LPS measurements. […] LPS content in the serosal solutions was measured with the LAL test according to the manufacturer's protocol. The value of background at t=0 min was subtracted and the serosal LPS appearance was expressed as Δ[LPS] […]

Compound | TDG-related augmentation of FITC-LPS transport into the lymph (rat small intestine) | inhibitory effect of TDG on FITC-LPS transport into the PV (rat small intestine) | AUC0-90 of lymph FITC-LPS compared with the +TDG group (rat small intestine) | TDG-induced reduction of AUC0-90 PV FITC-LPS (rat small intestine) | lymph output in TDG-treated rats (rat small intestine) | OA/TCA-increased serosal LPS content measured by FITC fluorescence intensity (rat jejunal mucosa) | AUC0-90 of PV FITC-LPS (rat small intestine) | AUC0-90 of lymph FITC-LPS (rat small intestine) | OA/TCA-induced FITC-LPS transport into the PV (rat small intestine) | FITC-LPS transport into the lymph (rat small intestine) | lymphatic output (rat small intestine; t=0-30 min, TDG 50 μg/kg iv at t=-15 min vs non-pretreated controls)
COC(=O)[C@@H](N)CCCNC(=N)N[N+](=O)[O-] [L-NAME, Nω-nitro-L-arginine methyl ester] | inhibited | reduced | reduced | reversed | reduced | – | – | – | – | – | –
CCCCCCCC/C=C\CCCCCCCC(=O)ON1C(=O)CC(S(=O)(=O)O)C1=O (stereo not shown) [SSO, sulfosuccinimidyl oleate] | – | – | – | – | – | abolished | failed to affect | no effect | inhibited | no effect | –
CC[C@H](C)[C@H](NC(=O)[C@H](Cc1ccccc1)NC(=O)[C@H](CC(=O)O)NC(=O)[C@H](CCCNC(=N)N)NC(=O)[C@H](C)NC(=O)[C@H](C)NC(=O)[C@H](CC(C)C)NC(=O)[C@H](CC(N)=O)NC(=O)[C@H](CC(=O)O)NC(=O)[C@H](CC(C)C)NC(=O)[C@@H](NC(=O)[C@@H](NC(=O)[C@H](CC(N)=O)NC(=O)[C@H](CCSC)NC(=O)[C@H](CCC(=O)O)NC(=O)[C@H](CC(=O)O)NC(=O)[C@H](CO)NC(=O)[C@H](Cc1ccccc1)NC(=O)[C@H](CO)NC(=O)CNC(=O)[C@H](CC(=O)O)NC(=O)CNC(=O)[C@@H](N)Cc1c[nH]cn1)[C@@H](C)O)[C@@H](C)CC)C(=O)N[C@@H](CC(N)=O)C(=O)N[C@@H](Cc1c[nH]c2ccccc12)C(=O)N[C@@H](CC(C)C)C(=O)N[C@H](C(=O)N[C@@H](CCC(N)=O)C(=O)N[C@H](C(=O)N[C@@H](CCCCN)C(=O)N[C@H](C(=O)N[C@H](C(=O)N[C@@H](CC(=O)O)C(=O)O)[C@@H](C)O)[C@@H](C)CC)[C@@H](C)O)[C@@H](C)CC [TDG] | – | – | – | – | – | – | reduced | no significant effect | abolished | rapidly increased | rapid increase
[Ac-His^1, D-Phe^2, Lys^15, Arg^16, Leu^27]-VIP(1-7)-GRF(8-27) (HFDAVFTNSYRKVLKRLSARKLLQDIL; HELM PEPTIDE1{[ac].H.[dF].D.A.V.F.T.N.S.Y.R.K.V.L.K.R.L.S.A.R.K.L.L.Q.D.I.L.[am]}$$$$V2.0; SMILES CC[C@H](C)[C@H](NC(=O)[C@H](CC(=O)O)NC(=O)[C@H](CCC(N)=O)NC(=O)[C@H](CC(C)C)NC(=O)[C@H](CC(C)C)NC(=O)[C@H](CCCCN)NC(=O)[C@H](CCCNC(=N)N)NC(=O)[C@H](C)NC(=O)[C@H](CO)NC(=O)[C@H](CC(C)C)NC(=O)[C@H](CCCNC(=N)N)NC(=O)[C@H](CCCCN)NC(=O)[C@H](CC(C)C)NC(=O)[C@@H](NC(=O)[C@H](CCCCN)NC(=O)[C@H](CCCNC(=N)N)NC(=O)[C@H](Cc1ccc(O)cc1)NC(=O)[C@H](CO)NC(=O)[C@H](CC(N)=O)NC(=O)[C@@H](NC(=O)[C@H](Cc1ccccc1)NC(=O)[C@@H](NC(=O)[C@H](C)NC(=O)[C@H](CC(=O)O)NC(=O)[C@@H](Cc1ccccc1)NC(=O)[C@H](Cc1c[nH]cn1)NC(C)=O)C(C)C)[C@@H](C)O)C(C)C)C(=O)N[C@@H](CC(C)C)C(N)=O) [PG97-269] | inhibited | no effect | reduced | no effect | reduced | – | – | – | – | – | –
methyl-β-cyclodextrin [MβCD] | – | – | – | – | – | abolished | abolished | no effect | abolished | no effect | –
